Test results as given in patent US20250270579A1, “PLANTS WITH ALTERED ROOT AND SHOOT ARCHITECTURE AND METHODS FOR OBTAINING AND USING SAME” (IOWA STATE UNIVERSITY RESEARCH FOUNDATION, INC., priority 2024, published 2025).

Key:
maize primary roots [1] = test: In vivo auxin accumulation assay in dissected primary roots; set-up: species or system Zea mays
Protocol: In vivo auxin transport assays. Auxin accumulation assays were performed as previously described (Strader and Bartel, “The Arabidopsis PLEIOTROPIC DRUG RESISTANCE8/ABCG36 ATP Binding Cassette Transporter Modulates Sensitivity to the Auxin Precursor Indole-3-Butyric Acid,” The Plant Cell 21:1992-2007 (2009), which is hereby incorporated by reference in its entirety). […] Sections were equilibrated in 40 μL of uptake buffer (20 mM MES, 10 mM sucrose, and 0.5 mM CaSO4, pH 5.6) for 30 minutes at room temperature (RT). 40 μL of 50 nM 3H-IAA was added to each sample and incubated at RT for 1 hour. Samples were rinsed 3 times with […] of uptake buffer. 3H-IAA in tissue samples was measured using a scintillation counter as previously described (Strader and Bartel, “The Arabidopsis PLEIOTROPIC DRUG RESISTANCE8/ABCG36 ATP Binding Cassette Transporter Modulates Sensitivity to the Auxin Precursor Indole-3-Butyric Acid,” The Plant Cell 21:1992-2007 (2009), which is hereby incorporated by reference in its entirety). Samples were moved to scintillation vials containing CytoScint (MP Biomedicals) and disintegrations per minute (DPM) were measured using a scintillation counter (Beckman Coulter LS-6500).

ZmPILS6 = test: Auxin transport assay in yeast expressing ZmPILS6; format: cell-based, Zea mays; conditions: yeast expressing ZmPILS6 compared to empty vector control
Protocol: Auxin transport assays in yeast. Transport assays of radiolabeled indole-3-acetic acid (^3H-IAA) were performed as previously described (Michniewicz, et al., “Transporter of IBA1 Links Auxin and Cytokinin to Influence Root Architecture,” Developmental Cell 50:599-609.e4 (2019), which is hereby incorporated by reference in its entirety). Briefly, pCC13 was transformed into Saccharomyces cerevisiae strain JBY575. Single yeast colonies were grown in liquid-URA selective media overnight at 30° C. Yeast were resuspended in 0.1M MES (pH 4.6) with 2% dextrose to an OD600 of 5. 100 μL of resuspended cells were added to a 1.5 mL Eppendorf tube and added 100 μL of 50 nM 3H-IAA and incubated at RT for 30 minutes. Yeast cells were centrifuged for 15 seconds before removing the supernatant and washing 3 times with MES solution. Cells were resuspended in 100 μL of MES buffer and ^3H-IAA was measured using a scintillation counter. For each plasmid expressing yeast, 12 biological replicates were statistically analyzed using a t test.

maize primary roots [2] = test: Auxin response assay (rolled towel), primary root length; format: in vivo, Zea mays; conditions: pils6-1 and pils6-3 roots compared to W22 and B73, 10 μM IAA
Protocol: Auxin response assays were performed using the rolled towel assay as previously described (Draves, “Maize Seedling Growth and Hormone Response Assays Using the Rolled Towel Method,” Current Protocols 2: e562 (2022), which is hereby incorporated by reference in its entirety) using 20-40 biological replicates per genotype and treatment. Maize kernels were surface sterilized with 6% bleach and planted on germination paper and placed vertically in a 2-L beaker with 600 mL of 0.5×Linsmaier and Skoog (LS) media. Seedlings were grown for 3 days after germination (DAG) and then treated with 10 μM indole-3-acetic acid (IAA) or an equal volume 95% ethanol for 7 additional days.

maize primary roots [3] = test: Proteomic profiling of maize roots with and without auxin treatment; format: in vivo, Zea mays; conditions: 10 μM IAA
Protocol: For proteomics analysis, W22 and pils6-1 kernels were surface sterilized and planted in rolled towels as described above. Two days after planting, ungerminated kernels were removed from the assay. Five-day-old seedlings were removed from the rolled towels and floated on 0.5×LS media supplemented with 10 μM IAA in 0.5×LS or an equal volume of 95% ethanol in 0.5×LS for 1 hour. For each biological replicate, total root tissue from 5 seedlings was excised using a scalpel and pooled prior to flash freezing in liquid nitrogen. Three biological replicates were generated per genotype and treatment.
Proteomics. Protein extraction and peptide generation. Protein extraction and peptide digestion was performed as previously described (Song et al., “Heterotrimeric G-Protein-Dependent Proteome and Phosphoproteome in Unstimulated Arabidopsis Roots,” Proteomics 18: e1800323 (2018), which is hereby incorporated by reference in its entirety). Briefly, total protein was extracted from […] of 5-day-old primary root tissue (W22 and pils6-1) using the phenol-FASP method as previously detailed (Song et al., “Assessment and Refinement of Sample Preparation Methods for Deep and Quantitative Plant Proteome Profiling,” Proteomics 18: e1800220 (2018); Song et al., “Quantitative Profiling of Protein Abundance and Phosphorylation State in Plant Tissues Using Tandem Mass Tags” in Plant Proteomics: Methods and Protocols, Methods in Molecular Biology., J. V. Jorrin-Novo, L. Valledor, M. A. Castillejo, M.-D. Rey, Eds., pp. 147-156 (Springer US, 2020), each of which is hereby incorporated by reference in its entirety). […] Peptide amounts were quantified using the Pierce BCA Protein assay kit […]

| SMILES | 3H-IAA accumulation in the elongation zone (maize primary roots [1]; pils6-1 roots (absence of ZmPILS6) compared to W22) | 3H-IAA accumulation in the stele (maize primary roots [1]; pils6-1 roots compared to W22) | 3H-IAA accumulation in yeast cells (ZmPILS6) | sensitivity of primary root length to exogenous IAA (maize primary roots [2]) | proteins with altered abundance in response to IAA treatment (maize primary roots [3]; W22 roots, 1 hour) [proteins] | proteins auxin-induced in W22 that are auxin-repressed in pils6-1 (maize primary roots [3]; W22 vs pils6-1 roots) [proteins] | auxin-responsive proteins (maize primary roots [3]; pils6-1 roots, 1 hour) [proteins] |
| --- | --- | --- | --- | --- | --- | --- | --- |
| O=C(O)Cc1c[nH]c2ccccc12 [3H-IAA] | hyperaccumulates | hypo-accumulates | significant decrease | – | – | – | – |
| O=C(O)Cc1c[nH]c2ccccc12 [IAA, indole-3-acetic acid] | – | – | – | less sensitive | 178 | 11 | 9 |
